Results reported in patent US9216991B2 (Ares Trading S.A., priority 2012, dated 2015).
Counter-ions that a name gives are not always drawn.

Molecular target: T1, IRAK4 (Homo sapiens, UniProt Q9NWZ3)
T1 construct: His (N); TEV cleavage site (N)
T1 sequence (Q9NWZ3 1-460): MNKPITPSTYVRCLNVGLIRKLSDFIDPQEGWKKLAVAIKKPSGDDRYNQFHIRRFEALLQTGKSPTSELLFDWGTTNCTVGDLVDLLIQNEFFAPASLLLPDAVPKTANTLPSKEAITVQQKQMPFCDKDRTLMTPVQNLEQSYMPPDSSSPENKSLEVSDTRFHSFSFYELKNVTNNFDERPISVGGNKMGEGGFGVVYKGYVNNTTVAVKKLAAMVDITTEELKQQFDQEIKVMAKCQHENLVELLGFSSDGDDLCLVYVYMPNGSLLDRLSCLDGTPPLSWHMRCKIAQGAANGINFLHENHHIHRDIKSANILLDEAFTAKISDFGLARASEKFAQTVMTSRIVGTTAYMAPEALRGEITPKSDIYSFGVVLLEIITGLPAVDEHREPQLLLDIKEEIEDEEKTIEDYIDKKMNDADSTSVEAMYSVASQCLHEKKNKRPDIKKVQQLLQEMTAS
Assay: IRAK4 Enzymatic Assay
Assay type: biochemical
Details: His-TEV-IRAK4 20 ng/well, ATP 2 μM, STK1-biotin peptide 300 nM, 3 hours at 30° C., FlashPlate radioactivity
Method in brief: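 Recombinant His-TEV-tagged IRAK4 (20 ng/well) phosphorylates biotinylated STK1 peptide (300 nM) with 2 μM ATP plus [^33P]ATP, 3 h at 30 °C in pH 7.0 HEPES buffer with MgCl2 and MnCl2; compounds tested 20 μM to 1 nM. Reaction stopped with EDTA; incorporated radioactivity counted on streptavidin FlashPlates.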

| Structure (SMILES) | IC50 [µM] |
| --- | --- |
| CC(C(=O)N(C)C)n1cc(-c2cnc(-c3cccc(-c4cnn(C)c4)c3)nc2)cn1 (stereo not drawn) [Example 99, N,N-Dimethyl-2-(4-{2-[3-(1-methyl-1H-pyrazol-4-yl)-phenyl]-pyrimidin-5-yl}-pyrazol-1-yl)-propionamide] | 1 to 5 |
| Cn1cc(-c2cccc(-c3ncc(-c4cnn([C@H]5CC[C@H](C(=O)NCC(C)(C)O)CC5)c4)cn3)c2)cn1 [Example 227, trans-4-(4-{2-[3-(1-Methyl-1H-pyrazol-4-yl)-phenyl]-pyrimidin-5-yl}-pyrazol-1-yl)-cyclohexanecarboxylic acid (2-hydroxy-2-methyl-propyl)-amide] | < 0.1 |
| CN(C)C(=O)[C@H]1CC[C@H](n2cc(-c3cnc(-c4cccc(-c5ccc(Cl)nn5)c4)nc3)cn2)CC1 [Example 234, Trans-4-(4-{2-[3-(6-Chloro-pyridazin-3-yl)-phenyl]-pyrimidin-5-yl}-pyrazol-1-yl)-cyclohexanecarboxylic acid dimethylamide] | 1 to 5 |
| CN(C)C[C@H]1CC[C@H](n2cc(-c3cnc(-c4cccc(-c5cnn(C)c5)c4)nc3)cn2)CC1 [Example 232, Trans-dimethyl-[4-(4-{2-[3-(1-methyl-1H-pyrazol-4-yl)-phenyl]-pyrimidin-5-yl}-pyrazol-1-yl)-cyclohexylmethyl]-amine] | < 0.1 |
| Cn1cc(-c2cccc(-c3ncc(-c4cnn(C5CCN([C@H]6CCOC[C@H]6F)CC5)c4)cn3)c2)cn1 [Example 167, 5-{1-[1-((3S,4S)-3-Fluoro-tetrahydro-pyran-4-yl)-piperidin-4-yl]-1H-pyrazol-4-yl}-2-[3-(1-methyl-1H-pyrazol-4-yl)-phenyl]-pyrimidine] | 0.1 to 1 |
| CNC(=O)C(CCO)n1cc(-c2cnc(-c3cccc(-c4cnn(C)c4)c3)nc2)cn1 (stereo not drawn) [Example 169, 4-Hydroxy-N-methyl-2-(4-{2-[3-(1-methyl-1H-pyrazol-4-yl)-phenyl]-pyrimidin-5-yl}-pyrazol-1-yl)-butyramide] | 1 to 5 |
| Cn1cc(-c2cccc(-c3ncc(-c4cn(C5CCOCC5)nc4C(=O)NCCO)cn3)c2)cn1 [Example 154, 4-{2-[3-(1-Methyl-1H-pyrazol-4-yl)-phenyl]-pyrimidin-5-yl}-1-(tetrahydro-pyran-4-yl)-1H-pyrazole-3-carboxylic acid (2-hydroxy-ethyl)-amide] | 1 to 5 |
| CN1CCCC1CCn1cc(-c2cnc(-c3cccc(-c4cnn(C)c4)c3)nc2)cn1 (stereo not drawn) [Example 64, 2-[3-(1-Methyl-1H-pyrazol-4-yl)-phenyl]-5-{1-[2-(1-methyl-pyrrolidin-2-yl)-ethyl]-1H-pyrazol-4-yl}-pyrimidine] | 0.1 to 1 |
| COCCC(=O)N1CCC(n2cc(-c3cnc(-c4cccc(-c5cnn(C)c5)c4)nc3)cn2)CC1 [Example 109, 3-Methoxy-1-[4-(4-{2-[3-(1-methyl-1H-pyrazol-4-yl)-phenyl]-pyrimidin-5-yl}-pyrazol-1-yl)-piperidin-1-yl]-propan-1-one] | 0.1 to 1 |
| CN1C[C@]2(CC[C@@H](n3cc(-c4cnc(-c5cccc(-c6cnn(C)c6)c5)nc4)cn3)CC2)CC1=O [Example 262, cis-2-Methyl-8-(4-{2-[3-(1-methyl-1H-pyrazol-4-yl)-phenyl]-pyrimidin-5-yl}-pyrazol-1-yl)-2-aza-spiro[4.5]decan-3-one] | < 0.1 |
| Cn1cc(-c2cccc(-c3ncc(-c4cnn(CC(N)=O)c4)cn3)c2)cn1 [Example 49, 2-(4-{2-[3-(1-Methyl-1H-pyrazol-4-yl)-phenyl]-pyrimidin-5-yl}-pyrazol-1-yl)-acetamide] | 1 to 5 |
| Cc1cc(-c2cccc(-c3ncc(-c4cnn([C@H]5CC[C@H](C(=O)N(C)C)CC5)c4)cn3)c2)cnn1 [Example 187, trans-4-(4-{2-[3-(6-Methyl-pyridazin-4-yl)-phenyl]-pyrimidin-5-yl}-pyrazol-1-yl)-cyclohexanecarboxylic acid dimethylamide] | < 0.1 |
| Cn1cc(-c2cccc(-c3ncc(-c4cnn(C5CCN(c6ccccc6F)CC5)c4)cn3)c2)cn1 [Example 175, 5-{1-[1-(2-Fluoro-phenyl)-piperidin-4-yl]-1H-pyrazol-4-yl}-2-[3-(1-methyl-1H-pyrazol-4-yl)-phenyl]-pyrimidine] | 0.1 to 1 |
| Cn1cc(-c2cccc(-c3ncc(-c4cnn([C@H]5CC[C@](O)(CO)CC5)c4)cn3)c2)cn1 [Example 258, Cis-1-Hydroxymethyl-4-(4-{2-[3-(1-methyl-1H-pyrazol-4-yl)-phenyl]-pyrimidin-5-yl}-pyrazol-1-yl)-cyclohexanol] | < 0.1 |
| Cn1cc(-c2cccc(-c3ncc(-c4cnn(C5CNC5)c4)cn3)c2)cn1 [Example 26, 5-(1-Azetidin-3-yl-1H-pyrazol-4-yl)-2-[3-(1-methyl-1H-pyrazol-4-yl)-phenyl]-pyrimidine hydrochloride] | 1 to 5 |
| Cn1cc(-c2cccc(-c3ncc(-c4cnn(C5CCOCC5CN5CCOCC5)c4)cn3)c2)cn1 (stereo not drawn) [Example 271, 4-[4-(4-{2-[3-(1-Methyl-1H-pyrazol-4-yl)-phenyl]-pyrimidin-5-yl}-pyrazol-1-yl)-tetrahydro-pyran-3-ylmethyl]-morpholine] | 1 to 5 |
| Cn1cc(-c2cccc(-c3ncc(-c4cnn(C5CCOC6(CCOCC6)C5)c4)cn3)c2)cn1 (stereo not drawn) [Example 267, 5-[1-(1,9-Dioxa-spiro[5.5]undec-4-yl)-1H-pyrazol-4-yl]-2-[3-(1-methyl-1H-pyrazol-4-yl)-phenyl]-pyrimidine] | < 0.1 |
| CC(C(=O)N1CCOCC1)n1cc(-c2cnc(-c3cccc(-c4cnn(C)c4)c3)nc2)cn1 (stereo not drawn) [Example 103, 2-(4-{2-[3-(1-Methyl-1H-pyrazol-4-yl)-phenyl]-pyrimidin-5-yl}-pyrazol-1-yl)-1-morpholin-4-yl-propan-1-one] | 1 to 5 |
| CC(=O)N1CCC(n2cc(-c3cnc(-c4cccc(-c5cnn(C)c5)c4)nc3)cn2)CC1 [Example 5, 1-[4-(4-{2-[3-(1-Methyl-1H-pyrazol-4-yl)-phenyl]-pyrimidin-5-yl}-pyrazol-1-yl)-piperidin-1-yl]-ethanone] | < 0.1 |
| Cn1cc(-c2cccc(-c3ncc(-c4cnn([C@H]5CC[C@]6(CCC(=O)N6)CC5)c4)cn3)c2)cn1 [Example 250, cis-8-(4-{2-[3-(1-Methyl-1H-pyrazol-4-yl)-phenyl]-pyrimidin-5-yl}-pyrazol-1-yl)-1-aza-spiro[4.5]decan-2-one] | < 0.1 |
| Cn1cc(-c2cccc(-c3ncc(-c4cnn(CC5CCNCC5)c4)cn3)c2)cn1 [Example 29, 2-[3-(1-Methyl-1H-pyrazol-4-yl)-phenyl]-5-(1-piperidin-4-ylmethyl-1H-pyrazol-4-yl)-pyrimidine hydrochloride] | 1 to 5 |
| CN(C)C(=O)C1CC2COCC(C1)C2n1cc(-c2cnc(-c3cccc(-c4cnn(C)c4)c3)nc2)cn1 (mixture of isomers) [Example 273, trans,cis-9-(4-{2-[3-(1-Methyl-1H-pyrazol-4-yl)-phenyl]-pyrimidin-5-yl}-pyrazol-1-yl)-3-oxa-bicyclo[3.3.1]nonane-7-carboxylic acid dimethylamide] | 0.1 to 1 |
| COCC(C)NC(=O)Cn1cc(-c2cnc(-c3cccc(-c4cnn(C)c4)c3)nc2)cn1 (stereo not drawn) [Example 63] | 0.1 to 1 |
| Cn1cc(-c2cccc(-c3ncc(-c4cnn(CC(=O)N5CC6(COC6)C5)c4)cn3)c2)cn1 [Example 55, 2-(4-{2-[3-(1-Methyl-1H-pyrazol-4-yl)-phenyl]-pyrimidin-5-yl}-pyrazol-1-yl)-1-(2-oxa-6-aza-spiro[3.3]hept-6-yl)-ethanone] | 0.1 to 1 |
| CC(=O)Cn1cc(-c2cnc(-c3cccc(-c4cnn(C)c4)c3)nc2)cn1 [Example 44, 1-(4-{2-[3-(1-Methyl-1H-pyrazol-4-yl)-phenyl]-pyrimidin-5-yl}-pyrazol-1-yl)-propan-2-one] | 0.1 to 1 |
| CN1CCC(n2cc(-c3cnc(-c4cccc(-c5cnn(C)c5)c4)nc3)cn2)CC1 [Example 6, 5-[1-(1-Methyl-piperidin-4-yl)-1H-pyrazol-4-yl]-2-[3-(1-methyl-1H-pyrazol-4-yl)-phenyl]-pyrimidine] | 0.1 to 1 |
| COC1CN(C(=O)Cn2cc(-c3cnc(-c4cccc(-c5cnn(C)c5)c4)nc3)cn2)C1 [Example 40, 1-(3-Methoxy-azetidin-1-yl)-2-(4-{2-[3-(1-methyl-1H-pyrazol-4-yl)-phenyl]-pyrimidin-5-yl}-pyrazol-1-yl)-ethanone] | 0.1 to 1 |
| CN(C)C(=O)[C@H]1C[C@H]2COC[C@@H](C1)[C@@H]2n1cc(-c2cnc(-c3cccc(-c4cnn(C)c4)c3)nc2)cn1 [Example 194, cis-cis-9-(4-{2-[3-(1-Methyl-1H-pyrazol-4-yl)-phenyl]-pyrimidin-5-yl}-pyrazol-1-yl)-3-oxa-bicyclo[3.3.1]nonane-7-carboxylic acid dimethylamide] | 1 to 5 |
| CC(=O)N[C@H]1CC[C@@H](n2cc(-c3cnc(-c4cccc(-c5cnn(C)c5)c4)nc3)cn2)CC1 [Example 161, Cis-N-[4-(4-{2-[3-(1-Methyl-1H-pyrazol-4-yl)-phenyl]-pyrimidin-5-yl}-pyrazol-1-yl)-cyclohexyl]-acetamide] | < 0.1 |
| CN(C(=O)Cn1cc(-c2cnc(-c3cccc(-c4cnn(C)c4)c3)nc2)cn1)C1COC1 [Example 145, N-Methyl-2-(4-{2-[3-(1-methyl-1H-pyrazol-4-yl)-phenyl]-pyrimidin-5-yl}-pyrazol-1-yl)-N-oxetan-3-yl-acetamide] | 0.1 to 1 |
